Earlier results as cited in patent US6183777A (priority 1997, dated 2001).

How the values were obtained:
[1] = test system: Alzheimer's Disease patients; conditions: mild to medium AD
[2] = in vivo
cerebral acetyl choline = conditions: in particular in the cerebral cortex

SMILES: Cl.Nc1c2c(nc3ccccc13)CCCC2 [Tacrine, 1,2,3,4-tetrahydro-9-acridinamine hydrochloride]
- memory and recognition of patients [1]: can significantly improve the memory and recognition of patients
- adverse effects [2]: gastro-intestinal side effects, such as nausea, vomiting, diarrhea, dyspepsia and loss of appetite; kinetic ataxia of voluntary muscles and myalgia; sweating and bradycardia induced by overexcitement of vagus nerues
- hepatoxicity [2]: may cause reversible hepatoxicity
- oral bioavailability, variation between individuals: may significantly vary in different individuals
- cerebral acetyl choline concentration (cerebral acetyl choline): may increase cerebral acetyl choline concentration
